Measured values as given in US20040043377A1, “Evaluation method for predicting pharmacokinetics of PM using PM liver cells of drug metabolozing enzyme cytochrome P450 having a genetic polymorphism” (Pfizer Inc, priority 2002, published 2004).
Read-outs that look alike come from different tables or passages of the source.

Assays:
[1] = clinical dose level (about 20 mg/body); cited from earlier work
CYP2D6 = CYP2D6 (Homo sapiens, UniProt P10635); settings: cited from earlier work
PM liver microsomes = assay: Metabolite formation in PM liver microsomes (Lot. No. HHM-0168); type: in vitro ADME, human
Protocol: Incubation reactions from the determination of the enzymatic kinetic parameters were carried out at a protein concentration of 0.2 mg/ml in 100 mM potassium phosphate, pH 7.4 containing 1.3 mM NADP^+, 0.93 mM NADH, 3.3 mM glucose-6-phosphate, 8 units/ml G-6-PDH, 3.3 mM MgCl2, and substrates. Reactions were initiated by the addition of NADP^+/NADH, and then terminated after 10 min incubation at 37° C. by the addition of ten-fold volume of acetonitrile containing an LC/MS/MS internal standard (Levallorphan at 100 ng/ml final conc.). The mixtures were centrifuged for 10 min, and supernatants were used for LC/MS/MS analyses to determine the production rates of metabolites.

[2] = test system: isolated PM liver cells of CYP2D6 (Lot 64); assay: Dextromethorphan metabolism in cryopreserved isolated PM liver cells of CYP2D6 (Lot 64); type: in vitro ADME, human
Protocol: (§1) A preliminary test for evaluation metabolic reactions was conducted by selecting dextromethorphan (DM, analgesic agent) as the substrate of CYP2D6. Metabolism of DM in the clinical setting is known to proceed by N-demethylation, O-demethylation followed by glucuronic acid conjugation. CYP3A4 catalyzes the N-demethylation reaction, while CYP2D6 catalyzes the O-demethylation reaction. In PM of […], N-demethylation is known to proceed as a compensatory metabolic pathway of O-demethylation. In the present embodiment, metabolic reactions were examined for dextromethorphan using isolated PM liver cells of CYP2D6, and a discussion was made as to whether or not the pharmacokinetics of PM can be predicted.
(§2) The cryopreserved isolated PM liver cells of PM of CYP2D6 that were used (Lot 64) and the cryopreserved isolated EM liver cells (Lot 70) were prepared at In Vitro Technologies (IVT), USA. Liver cells for which the activity of CYP3A4 was roughly equal to that of Lot 64 of the cryopreserved isolated PM liver cells were selected by referring to data provided by IVT for use as the cryopreserved isolated EM liver cells. The acquired cells consisted of 6×10^6 cells per vial for both lots.
(§3) Krebs Henseleit buffer (adjusted to pH 7.4 following addition of calcium chloride dihydrate (0.373 g/L), sodium bicarbonate (2.1 g/L) and HEPES (1.5 g/L)) was used for the incubation medium. The cryopreserved human isolated liver cells were inoculated into a 96-well plate and used for testing while suspended in culture liquid. Dextromethorphan (DM), which is the substrate of CYP2D6, was added to the wells at final concentrations of 0.08, 0.4, 2, 10 and 50 μM and allowed to react at 37° C. The reaction liquid was sampled after 1 and 2 hours, and the parent compound (DM) along with dextrorphan (DEX: metabolite mainly produced by CYP2D6) and 3-methoxymorphinan (3-MM: metabolite mainly produced by CYP3A4) were respectively assayed. In addition, with respect to assay of the conjugate (glucuronide), DEX obtained by hydrolysis following the addition of β-glucuronidase/allylsulfatase to the sampled reaction liquid was assayed, and the difference with DEX prior to hydrolysis was taken to be the amount of the conjugate. LC/MS/MS were used for analyzing the unchanged form and metabolites in the culture liquid.
Furthermore, LC/MS/MS were carried out under the measurement conditions described below. HPLC: Waters 2790, MS: API365 Sciex, column: YMC J′ sphere ODS L80 2×35 mm, gradient: mobile phase A [CH3CN:10 mM CH3CO2NH4 aqueous solution=10:90], mobile phase B [CH3CN:10 mM CH3CO2NH4 aqueous solution=80:20], conditions [mobile phase flow rate 0.35 ml/minute, composition of mobile phase changed from A:B=100:0 to A:B=0:100 1 minute after sample injection, followed by allowing composition of A:B=0:100 to flow for 1 minute], MS/MS detection: DM=272.3/170.9, DEX=258.2/157.1, 3-MM=258.2/215.0, MDZ=326.1/291.1, 4-OH MDZ=342.1/324.1.

[3] = test system: isolated EM liver cells (Lot 70); assay: Dextromethorphan metabolism in cryopreserved isolated EM liver cells (Lot 70); type: in vitro ADME, human
Protocol: as §1, §2
as §3, with “In addition, with respect to assay of the conjugate (glucuronide), DEX obtained by hydrolysis following the addition of β-glucuronidase/allylsulfatase to the sampled reaction liquid was assayed, and the difference with DEX prior to hydrolysis was taken to be the amount of the conjugate. LC/MS/MS were used for analyzing the unchanged form and metabolites in the culture liquid.” left out

Sequence of CYP2D6 (P10635 whole entry): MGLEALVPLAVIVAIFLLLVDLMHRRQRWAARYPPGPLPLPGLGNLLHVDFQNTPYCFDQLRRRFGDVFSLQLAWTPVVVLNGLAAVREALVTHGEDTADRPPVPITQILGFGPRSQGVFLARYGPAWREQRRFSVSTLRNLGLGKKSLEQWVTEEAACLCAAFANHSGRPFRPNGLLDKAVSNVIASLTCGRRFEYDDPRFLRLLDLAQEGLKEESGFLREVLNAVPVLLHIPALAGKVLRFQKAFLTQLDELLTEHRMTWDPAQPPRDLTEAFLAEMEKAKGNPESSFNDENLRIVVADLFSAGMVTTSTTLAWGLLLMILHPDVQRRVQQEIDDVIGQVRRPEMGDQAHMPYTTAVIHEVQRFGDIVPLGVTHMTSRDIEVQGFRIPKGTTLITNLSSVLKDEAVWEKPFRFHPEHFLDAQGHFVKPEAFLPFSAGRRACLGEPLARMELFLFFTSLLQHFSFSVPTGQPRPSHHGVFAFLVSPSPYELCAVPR

COc1ccc2c(c1)[C@]13CCCC[C@@H]1[C@H](C2)N(C)CC3 [DM, dextromethorphan]
concentration of DM in the blood [1]: up to 1 μM | Km (CYP2D6): ~2 µM | differences in 3-MM/1'OH-MDZ formation rate between PM and EM liver microsomes (PM liver microsomes; FIG. 6): not statically significance | compensatory metabolic pathway (PM liver microsomes; PM microsomes): did not proceed | DEX formation [2]: not detected | 3-MM formation rate versus EM liver cells ([2]; CYP2D6 PM liver cells): greater than that in EM liver cells | differences in 3-MM/1'OH-MDZ formation rate between PM and EM liver cells (hepatocytes) ([2]; FIG. 5): large | formation rate of 3-MM relative to DEX formation rate ([2]; PM liver cells): comparable to the DEX formation rates | DEX formation ([2]; PM liver cells, DM 10 μM and 50 μM): formation of DEX was observed | DEX formation ([2]; PM, in the vicinity of concentration of DM in the blood (up to 1 μM)): only slight formation of DEX | glucuronic acid conjugation reaction (DEX-glucuronide formation) ([2]; isolated PM liver cells lot 64): clearly determined to proceed | formation rate of 3-MM relative to DEX formation rate ([3]; EM liver cells): less than one-tenth | formation rate of metabolite DEX ([3]; EM liver cells, DM 0.08-50 μM): increased concentration-dependently | glucuronic acid conjugation reaction (DEX-glucuronide formation) ([3]; isolated EM liver cells lot 70): clearly determined to proceed
